The PolyMetriX glass transition set
± gives the standard deviation of the reports.

Row | SMILES | glass transition temperature [°C]
1 | *CC(*)(C)C(=O)OCCN(C)C (repeat unit) | 28.62
2 | *OC(COCCCC)COC(*)=O (repeat unit) | -22.00
3 | *C(=O)Nc1ccc(Oc2ccc(NC(=O)c3ccc4c(c3)C(=O)N(c3ccc(-c5sc(-c6ccc(N7C(=O)c8ccc(*)cc8C7=O)cc6)c(-c6ccccc6)c5-c5ccccc5)cc3)C4=O)cc2)cc1 (repeat unit) | 320.00
4 | *C(=O)Nc1ccc(Oc2ccc(C3(c4ccc(Oc5ccc(NC(=O)c6ccc7c(c6)C(=O)N(c6ccc(Oc8ccc(Oc9ccc(N%10C(=O)c%11ccc(*)cc%11C%10=O)cc9)c(C)c8)cc6)C7=O)cc5)cc4)NC(=O)c4ccccc43)cc2)cc1 (repeat unit) | 293.00
5 | *c1cc(-c2nc3ccccc3[nH]2)cc(-n2c(=O)c3cc4c(=O)n(*)c(=O)c4cc3c2=O)c1 (repeat unit) | 180.00
6 | *CCCCCCCCCOC(=O)c1ccc(-c2ccc(C(=O)O*)cc2)cc1 (repeat unit) | 50.50
7 | *O[Si](C)(C)c1ccc([Si](C)(C)Oc2c(C)cc(-c3cc(C)c(*)c(C)c3)cc2C)cc1 (repeat unit) | 67.00
8 | *C(=O)Nc1ccc(C(c2ccc(NC(=O)c3ccc(N4C(=O)c5ccc(*)cc5C4=O)cc3C)cc2)(C(F)(F)F)C(F)(F)F)cc1 (repeat unit) | 355.00
9 | *CC(c1ccccc1)C1C(=O)N(C(C)(C)C)C(=O)C1* (repeat unit) | 178.00
10 | *CCCNC(=O)CCCCCCCCC(=O)NCCCOCCOCCO* (repeat unit) | 40.00
11 | *C(=O)c1ccc2c(c1)C(=O)N(c1cccc(Nc3nc(Nc4cccc(N5C(=O)c6ccc(*)cc6C5=O)c4)nc(N(C)C)n3)c1)C2=O (repeat unit) | 294.00
12 | *O[Si](*)(C)CCCCCCCCCCC(=O)Oc1ccc(C(=O)Oc2ccc(-c3ccc(OC(=O)CCCCC(=O)OC4CC(C)CCC4C(C)C)cc3)cc2)cc1 (repeat unit) | 32.40
13 | *CC(O)CN(*)c1ccccc1 (repeat unit) | 78.50
14 | *CC(*)C(F)(F)F (repeat unit) [Poly(3,3,3-trifluoropropylene) ] | 27 ± 2.3
15 | *C(=O)Nc1ccc(NC(=O)c2ccc3c(c2)C(=O)N(c2ccc(S(=O)(=O)c4ccc(N5C(=O)c6ccc(*)cc6C5=O)cc4)cc2)C3=O)cc1 (repeat unit) | 368.00
16 | *CC(*)(CC(=O)OCC)C(=O)O (repeat unit) | 135.00
17 | *c1ccc(-c2ccc(-c3cc(-c4ccccc4)c4cc(C5(c6ccc7nc(*)cc(-c8ccccc8)c7c6)c6ccccc6C(=O)c6ccccc65)ccc4n3)cc2)cc1 (repeat unit) | 350.00
18 | *c1ccc2c(c1)C(=O)N(c1ccc(C3(c4ccc(N5C(=O)c6ccc(C(*)(C(F)(F)F)C(F)(F)F)cc6C5=O)c(F)c4)c4ccccc4-c4ccccc43)cc1F)C2=O (repeat unit) | 352.00
19 | *CCN(*)C(=O)c1c(F)c(F)cc(F)c1F (repeat unit) | 122.00

Row | SMILES | glass transition temperature [°C]
20 | *OC(=O)c1ccc(C(=O)Oc2ccc3c(c2)Oc2cc(*)ccc2C32c3ccccc3-c3ccccc32)cc1 (repeat unit) | 290.00
21 | *CC(*)c1ccc(COc2ccc(-c3ccc(-c4ccc(-c5ccc(CCCCCC)s5)s4)c4nsnc34)cc2)cc1 (repeat unit) | 122.00
22 | *O[Si](*)(C)CCCOc1ccc(C(=O)Oc2ccc(OC(=O)CCCCC(=O)OC3CC(C)CCC3C(C)C)cc2)cc1 (repeat unit) | 45.30
23 | *Oc1ccc(C(C)(C)c2ccc(OC(=O)CC(C)CCC(*)=O)cc2)cc1 (repeat unit) | 56.00
24 | *CC/C=C(/*)c1ccccc1 (repeat unit) | 39.50
25 | *c1ccc(Oc2ccc(Oc3ccc(-n4c(=O)c5cc6c(=O)n(*)c(=O)c6cc5c4=O)cc3)cc2C(C)(C)C)cc1 (repeat unit) | 314.00
26 | *CCOC(=O)CCCCCCCCC(=O)OCCOC(=O)c1ccc(C(=O)O*)cc1 (repeat unit) | -6.50
27 | *CC(O)COc1ccc(C(C)(C)c2ccc(OCC(O)COc3cccc(NC(=O)CCCCCCC(=O)Nc4cccc(O*)c4)c3)cc2)cc1 (repeat unit) | 92.00
28 | *CC(*)C1CCCC(C)C1 (repeat unit) | 141.00
29 | *c1ccc(Oc2ccc(C(c3ccc(Oc4ccc(-c5nnc(*)n5-c5cccc(C(F)(F)F)c5)cc4)cc3)(C(F)(F)F)C(F)(F)F)cc2)cc1 (repeat unit) | 185.00
30 | *CC(*)c1ccc(OCCCC)cc1 (repeat unit) [Poly(p-n-butoxy styrene) ] | 47 ± 3.3
31 | *CCCC1(CCCNC(=O)CCCCCCCCC(=O)N*)c2ccccc2-c2ccccc21 (repeat unit) | 85.00
32 | *c1ccc(Oc2ccc(N3C(=O)c4ccc(Oc5cc6ccccc6cc5Oc5ccc6c(c5)C(=O)N(*)C6=O)cc4C3=O)cc2)cc1 (repeat unit) | 220.50
33 | *CCOc1ccc(C(=O)Nc2cc(NC(=O)c3ccc(O*)cc3)cc(-c3nc4ccccc4[nH]3)c2)cc1 (repeat unit) | 275.00
34 | *CCN(CCN1C(=O)c2ccc(C(c3ccc4c(c3)C(=O)N(*)C4=O)(C(F)(F)F)C(F)(F)F)cc2C1=O)c1ccc(/N=N/c2ccc(C#N)cc2)cc1 (repeat unit) | 213.00
35 | *c1ccc(Oc2cccc(Oc3ccc(N4C(=O)c5cccc(Oc6ccc(Sc7ccc(Oc8cccc9c8C(=O)N(*)C9=O)cc7)cc6)c5C4=O)cc3)c2)cc1 (repeat unit) | 202.00
36 | *CCOCCOCCOC(=O)CCCCC(=O)O* (repeat unit) | -49.00
37 | *CCSSSSCCO* (repeat unit) | -40.00
38 | *CCCP(CCCNC(=O)CCCCC(=O)N*)CC(C)C (repeat unit) | 71.00

Further lines, results first:

Row | glass transition temperature [°C] | SMILES
39 | 171.00 | *Oc1ccc(C(C)(C)c2ccc(Oc3ccc(C(=O)c4ccc(C(C)(C)c5ccc(C(=O)c6ccc(*)cc6)cc5)cc4)cc3)cc2)cc1 (repeat unit)
40 | -8.00 | *CCCCCCOC(=O)OCCCCCCCCCCCCOC(=O)OCCCCCCOc1ccc(C(=O)c2ccc(O*)cc2)cc1 (repeat unit)
41 | -18.00 | *CCCCCCCCCCCCCCCCOC(=O)CC/C=C/CCC(=O)O* (repeat unit)
42 | 174.00 | */C(C#N)=C/c1cc(OCCCCCCCC)c(/C=C(\C#N)c2cc(OCCCCCCCC)c(*)cc2OC)cc1OC (repeat unit)
43 | 70.00 | *C(=O)OCC(C)(C)COC(=O)N1CCN(*)CC1 (repeat unit)
44 | 239.00 | *c1cccc(N2C(=O)c3ccc(Oc4ccc(C(=O)c5ccc(Oc6ccc7c(c6)C(=O)N(*)C7=O)cc5)cc4)cc3C2=O)c1 (repeat unit)
45 | 188.00 | *CC(C)(C)C1C(=O)N(c2ccccc2)C(=O)C1* (repeat unit)
46 | 142.00 | *Oc1ccc(C(c2ccc(OC(=O)OC3C(C)(C)C(OC(*)=O)C3(C)C)cc2)(C(F)(F)F)C(F)(F)F)cc1 (repeat unit)
47 | 74.00 | *Oc1ccc(C(=O)OCCOC(=O)c2ccc(*)cc2)cc1 (repeat unit)
48 | 26.00 | *CC(*)(C)C(=O)OCc1ccc2c(c1)c1ccccc1n2CCCCCCCCCCCCCC (repeat unit)
49 | 230.00 | *c1cccc(N2C(=O)c3ccc(Oc4ccc5cc(Oc6ccc7c(c6)C(=O)N(*)C7=O)ccc5c4)cc3C2=O)c1 (repeat unit)
50 | -40.00 | *CC(*)(C)C(=O)OCCCCCCCC/C=C/CCCCCCCC (repeat unit)
51 | 200.00 | *c1ccc(Oc2ccc(-c3ccc(Oc4ccc(N5C(=O)c6ccc(Oc7cccc(Oc8ccc9c(c8)C(=O)N(*)C9=O)c7)cc6C5=O)cc4)cc3)cc2)cc1 (repeat unit)
52 | 122.00 | *CCN(*)C(=O)c1c(F)cc(F)c(F)c1F (repeat unit)
53 | 224.00 | *Oc1ccc(Oc2ccc(C(=O)c3ccc(NC(=O)c4ccc(C(=O)Nc5ccc(C(=O)c6ccc(*)cc6)cc5)cc4)cc3)cc2)cc1 (repeat unit)
54 | 82.00 | *Oc1ccc(CC(NC(=O)CCc2ccc(OC(=O)COCC(*)=O)cc2)C(=O)OC)cc1 (repeat unit)
55 | 122.00 | *Oc1ccc(C(C)(C)c2ccc(OC(=O)c3cccc(C(F)(F)C(F)(F)C(F)(F)c4cccc(C(*)=O)c4)c3)cc2)cc1 (repeat unit)
56 | 180.00 | *CCCCOC(=O)c1ccc(-c2ccc(-c3ccc(C(=O)O*)cc3)cc2)cc1 (repeat unit)
57 | 175.00 | */C=C/c1cc(OC)c(/C=C/c2ccc(/C=C(\Oc3ccccc3)c3ccc(/C(=C/c4ccc(*)cc4)c4ccc(Oc5ccccc5)cc4)cc3)cc2)cc1OC (repeat unit)
58 | 85.00 | *Oc1ccc(C(C)(C)c2ccc(OC(=O)c3cccc(Oc4cccc(C(*)=O)c4)c3)cc2)cc1 (repeat unit)
59 | -55.00 | *O[Si](*)(C)CCCCCCCCCCCOc1ccc(/C=C/c2ccc(C#N)cc2)cc1 (repeat unit)
60 | 143.50 | *CC(*)(C)C(=O)OCC1OC(n2ccc(=O)[nH]c2=O)C(O)C1O (repeat unit)
61 | 43.00 | *CC(*)(C)C(=O)OCCCCCCOc1ccc(C(=O)Oc2ccc(C#N)cc2)cc1 (repeat unit)
62 | -26.50 | *CC#CCOC(=O)CCCCCCCCC(=O)O* (repeat unit)
63 | 136.00 | *c1ccc2cc(OC(=O)c3ccc(C(=O)Oc4ccc5cc(-c6nc7ccccc7nc6*)ccc5c4)cc3)ccc2c1 (repeat unit)
64 | 200.00 | *Nc1cc(NC(=O)c2ccc(C(*)=O)cc2)cc(C(=O)Oc2ccccc2)c1 (repeat unit)
65 | 369.00 | *c1ccc2oc(-c3ccc(-c4nc5cc(C(*)(c6ccccc6)C(F)(F)F)ccc5o4)cc3)nc2c1 (repeat unit)
66 | 162.00 | *Oc1ccc(Oc2ccc(C(=O)c3ccc(*)cc3)cc2)cc1-c1cc(C)cc(C)c1 (repeat unit)
